Assay results: ChEMBL document CHEMBL1201862, “PubChem BioAssay data set” (2004)
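Growth conditions: 96-well plates. Treatment: test compound, 48 hours, 5 concentrations. Analysis: linear interpolation between bracketing concentrations; unreached endpoints set to highest concentration. GI50 is the concentration that inhibits growth by half.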 The source made the active and inactive calls. No stated cut-off is given here; in the data, active = GI50 up to about 1.1 µM and inactive = higher.

Legend:
Assay in all cases: inhibition of tumour cell growth, NCI panel, 48 h
[1] = test system: SK-MEL-5
[2] = test system: HT-29
[3] = test system: HCT-15
[4] = test system: A498
[5] = test system: EKVX
[6] = test system: COLO 205
[7] = test system: RXF 393
[8] = test system: NCI-H226
[9] = test system: ACHN
[10] = test system: NCI-H522
[11] = test system: RPMI-8226
[12] = test system: TK-10
[13] = test system: 786-0
[14] = test system: HOP-62
[15] = test system: OVCAR-8
[16] = test system: UACC-257
[17] = test system: SF-295
[18] = test system: XF498
[19] = test system: SNB-19
[20] = test system: HOP-18
[21] = test system: SN12C
[22] = test system: SK-MEL-2
[23] = test system: SR
[24] = test system: UO-31
[25] = test system: OVCAR-4
[26] = test system: HCC 2998
[27] = test system: SW-620
[28] = test system: UACC-62
[29] = test system: SK-MEL-28
[30] = test system: HL-60
[31] = test system: SK-OV-3
[32] = test system: K562
[33] = test system: KM-20L2
[34] = test system: DMS-273
[35] = test system: HOP-92
[36] = test system: NCI-H23
[37] = test system: HCT-116
[38] = test system: NCI-H460
[39] = test system: Malme-3M
[40] = test system: A549
[41] = test system: KM12
[42] = test system: M14
[43] = test system: CAKI-1
[44] = test system: SNB-75
[45] = test system: LOX IMVI
[46] = test system: CCRF-CEM
[47] = test system: DMS-114
[48] = test system: SF-268
[49] = test system: LXFL 529
[50] = test system: SNB-78
[51] = test system: M19-MEL
[52] = test system: SF-539
[53] = test system: MOLT-4
[54] = test system: U-251
[55] = test system: DLD-1
[56] = test system: OVCAR-5
[57] = test system: OVCAR-3
[58] = test system: IGROV-1

For `N#CN=C(NCc1ccccc1)NCc1ccccc1`, the GI50 [1] was > 100 µM (inactive), the GI50 [2] was > 100 µM (inactive) and the GI50 [3] was greater than 40.3 µM. The GI50 [4] was > 100 µM (inactive), the GI50 [5] was > 100 µM (inactive) and the GI50 [6] was > 42.9 µM (inactive). The GI50 [7] was > 48.6 µM (inactive), the GI50 [8] was > 100 µM (inactive) and the GI50 [9] was > 64.9 µM (inactive). The GI50 [10] was > 100 µM (inactive), the GI50 [11] was > 100 µM (inactive) and the GI50 [12] was > 100 µM (inactive). The GI50 [13] was > 60.7 µM (inactive), the GI50 [14] was > 100 µM (inactive) and the GI50 [15] was > 100 µM (inactive). The GI50 [16] was > 100 µM (inactive), the GI50 [17] was > 100 µM (inactive) and the GI50 [18] was > 77.1 µM (inactive). The GI50 [19] was > 100 µM (inactive), the GI50 [20] was > 100 µM (inactive) and the GI50 [21] was > 100 µM (inactive). For the same compound, the GI50 [22] was > 100 µM (inactive), the GI50 [23] was 27.9 µM (inactive) and the GI50 [24] was > 100 µM (inactive). For the same compound, the GI50 [25] was > 100 µM (inactive), the GI50 [26] was > 100 µM (inactive) and the GI50 [27] was > 44 µM (inactive). The GI50 [28] was > 100 µM (inactive), the GI50 [29] was > 100 µM (inactive) and the GI50 [30] was > 100 µM (inactive). For the same compound, the GI50 [31] was > 100 µM (inactive), the GI50 [32] was > 75.3 µM (inactive) and the GI50 [33] was > 100 µM (inactive). For the same compound, the GI50 [34] was > 41.9 µM (inactive), the GI50 [35] was > 100 µM (inactive) and the GI50 [36] was > 100 µM (inactive). For the same compound, the GI50 [37] was 18.4 µM (inactive), the GI50 [38] was > 64.7 µM (inactive) and the GI50 [39] was > 100 µM (inactive). The GI50 [40] was > 83 µM (inactive), the GI50 [41] was > 100 µM (inactive) and the GI50 [42] was > 100 µM (inactive). The GI50 [43] was > 100 µM (inactive), the GI50 [44] was > 100 µM (inactive) and the GI50 [45] was > 100 µM (inactive). For the same compound, the GI50 [46] was > 100 µM (inactive), the GI50 [47] was > 38.3 µM (inactive) and the GI50 [48] was 18.2 µM (inactive). The GI50 [49] was > 92 µM (inactive), the GI50 [50] was > 100 µM (inactive) and the GI50 [51] was > 54.7 µM (inactive). The GI50 [52] was > 100 µM (inactive), the GI50 [53] was > 100 µM (inactive) and the GI50 [54] was > 48.2 µM (inactive). The GI50 [55] was > 47.4 µM (inactive), the GI50 [56] was > 100 µM (inactive) and the GI50 [57] was > 100 µM (inactive). For the same compound, the GI50 [58] was > 100 µM (inactive).
`O/N=C(\C(=N/O)Nc1ccc(-c2ccc(NC(=N/O)/C(=N\O)c3ccccc3)cc2)cc1)c1ccccc1` was tested, and the GI50 [1] was 20.3 µM (inactive), the GI50 [2] was 13.6 µM (inactive) and the GI50 [3] was 27.3 µM. For the same compound, the GI50 [4] was 24.1 µM (inactive), the GI50 [5] was 20.4 µM (inactive) and the GI50 [6] was 16.7 µM (inactive). The GI50 [8] was 28.5 µM (inactive), the GI50 [9] was 30.6 µM (inactive) and the GI50 [10] was 17.8 µM (inactive). For the same compound, the GI50 [11] was 25.9 µM (inactive), the GI50 [12] was 36.8 µM (inactive) and the GI50 [13] was 21.5 µM (inactive). The GI50 [14] was 11 µM (inactive), the GI50 [15] was 21.4 µM (inactive) and the GI50 [16] was 29.9 µM (inactive). The GI50 [17] was 18.6 µM (inactive), the GI50 [18] was 19.3 µM (inactive) and the GI50 [19] was 19.2 µM (inactive). For the same compound, the GI50 [20] was 13.6 µM (inactive), the GI50 [21] was 32.8 µM (inactive) and the GI50 [22] was 20.2 µM (inactive). For the same compound, the GI50 [24] was 31.8 µM (inactive), the GI50 [26] was 0.214 µM (active) and the GI50 [27] was 22.2 µM (inactive). For the same compound, the GI50 [28] was 18.5 µM (inactive), the GI50 [30] was 27.9 µM (inactive) and the GI50 [31] was 17.5 µM (inactive). For the same compound, the GI50 [32] was 18 µM (inactive), the GI50 [33] was 18.9 µM (inactive) and the GI50 [34] was 19.1 µM (inactive). For the same compound, the GI50 [35] was 20 µM (inactive), the GI50 [36] was 17.5 µM (inactive) and the GI50 [37] was 18.7 µM (inactive). For the same compound, the GI50 [38] was 17.3 µM (inactive), the GI50 [39] was 19.4 µM (inactive) and the GI50 [40] was 31.5 µM (inactive). For the same compound, the GI50 [41] was 19 µM (inactive), the GI50 [42] was 17.9 µM (inactive) and the GI50 [43] was 22.4 µM (inactive). The GI50 [45] was 15.3 µM (inactive), the GI50 [46] was 18.8 µM (inactive) and the GI50 [48] was 27.4 µM (inactive). For the same compound, the GI50 [49] was 15.7 µM (inactive), the GI50 [50] was 30.8 µM (inactive) and the GI50 [51] was 17.2 µM (inactive). For the same compound, the GI50 [52] was 18.9 µM (inactive), the GI50 [53] was 17.3 µM (inactive) and the GI50 [54] was 25.7 µM (inactive). The GI50 [55] was 22.3 µM (inactive), the GI50 [56] was 13.5 µM (inactive) and the GI50 [57] was 17.1 µM (inactive). The GI50 [58] was 25.1 µM (inactive).
